PMC8169650, “Identification of Small Molecule Inhibitors of a Mir155 Transcriptional Reporter in Th17 Cells” (Scientific Reports, 2021)
Where two headings read alike, the source gives them in different places.

Assays:
Mir155 reporter = Mir155 reporter Beta-Glo HTS assay (β-gal activity); type: cell-based, mouse; conditions: Mus musculus, 48 h, read-out: EC50, inhibition of Mir155 reporter expression
Experimental: To develop an assay for the HTS screen, CD4^+ T cells were purified from spleen and lymph nodes of the Mir155 reporter mice. The purified CD4^+ T cells were cultured under Th17 cell-polarizing conditions in twelve well plates following which differentiated Th17 cells were transferred and expanded in six well plates followed by a resting period of 2 days in T cell media (schema depicted in Fig. 1a). We first optimized the cell number to maximize the assay window. To this end, differentiated Th17 cells were plated at different cell densities in the wells of polystyrene 1536-well plates under Th17 polarizing conditions. T cell activation was accomplished using two protocols. In the first protocol, magnetic beads coupled to anti-CD3 and anti-CD28 antibodies (CD3/CD28 microbeads) were added to mediate T cell activation as induction of MiR155 expression requires engagement of the TCR CD3 complex (signal 1) plus the co-stimulatory molecule CD28 (signal 2). The cells along with the beads were incubated at 37 °C, 5% CO2 for 48 h and, subsequently, high-throughput quantitation of β-gal activity was performed after 30 min of incubation using the Beta-Glo Assay system (Fig. 1b).
The NPC collection was screened at seven concentrations (top concentration 46 µM; 1:5 dilution thereafter) and drug response curves for the compounds were generated using our qHTS curve class classification algorithm as described above.
CD4^+ cells were purified from spleens and lymph nodes of Mir155 reporter mice as described above. Briefly, single cell suspensions were prepared by mechanical disruption followed by lysis of red blood cells with 0.83% ammonium chloride. CD4^+ T cells were either isolated by FACS sorting (BD FACS Aria) or were positively selected using magnetic CD4 microbeads (Miltenyi Biotec)[43]. 1 million CD4^+ cells/well were cultured in anti-CD3/CD28 (1 µg/ml each) coated 12 well plates under Th17 polarization conditions following which differentiated Th17 cells were transferred and expanded in six well plates followed by a resting period of 2 days in T cell media. A cocktail containing 10 ng/ml each of IL-6, IL-1 β, IL-21 and TGF-β (0.5 ng/ml) and IFNγ, IL-4, IL-12 neutralizing antibodies (10 μg/ml) was used for the Th17 polarizing conditions. For the HTS assay, 2000 differentiated Th17 cells/well in Th17 polarizing media were added to Greiner-one high base solid bottom white tissue culture treated 1536 well plates (catalog # 789173-F) using a small cassette and a Multidrop Combi dispenser (Thermo Fisher Scientific Inc.,Waltham, MA). Compounds were added using a Kalypsys pintool (Columns 5–48) and magnetic beads coupled to anti-CD3 and anti-CD28 (CD3/CD28 microbeads) were added to mediate T cell activation. CD3/CD28 microbeads were not added to first 2 columns and those wells served as basal control. DMSO was added to columns 3 and 4 and served as 100% signal. The plates were incubated for 48 h at 37 °C, 5% CO2, 95% humidity covered with low evaporation stainless steel lids from Kalypsys. After 48 h of incubation, 5 µl of Beta-Glo reagent (Beta Glo Assay System, Promega) was added using a Bioraptor Flying Reagent Dispenser (Aurora Discovery-BD) and the plates were incubated at room temperature for 30 min. Luminescence signal was captured using a 10 s exposure with a ViewLux (Perkin Elmer) containing a luminescent filter. Beta Glo reagent consists of Beta Glo substrate and buffer that are combined to form the Beta Glo reagent (Beta Glo Assay System, Promega).

[1] = test system: IL-17 production in Th17 cells; assay: Intracellular IL-17 flow cytometric cytokine assay under Th17 polarization; type: cell-based, mouse; conditions: for IL-17+ cells, gated on live CD4+CD44high cells: DMSO 32% (panel b), 36.8% (panel c); for inhibition at 20 µM: Mus musculus, 96 h, read-out: down-regulation (inhibition) of IL-17 production compared to control
Experimental: (§1) It has been previously shown that IL-17 production is defective in miR-155 deficient cells. […] To test the hit compounds for IL-17 downregulation, we purified naive CD4^+ T cells from C57BL/6 mice and cultured them under Th17 polarization condition. Small molecules at multiple concentrations (20 µM, 10 µM and 5 µM) were added 18 h post-plating of CD4^+ T cells on anti-CD3/CD28 coated plates and again on day 2 of culture (schema depicted in Fig. 3a).
(§2) Spleens and lymph nodes were harvested from mice and single cell suspensions were prepared by mechanical disruption followed by lysis of red blood cells with 0.83% ammonium chloride. CD4^+ T cells were either isolated by FACS sorting (BD FACS Aria) or were positively selected using magnetic CD4 microbeads (Miltenyi Biotec). For intracellular IL-17 quantitation by flow cytometry, 0.25 million cells/ well were plated in anti-CD3/CD28 (1 µg/ml) coated 48 well plates. A cocktail containing 10 ng/ml each of IL-6, IL-1 β, IL-21 and TGF-β (0.5 ng/ml) and IFNγ, IL-4, IL-12 neutralizing antibodies (10 μg/ml) was used for the Th17 polarizing conditions. All recombinant cytokines were purchased from R&D Systems and crosslinking antibodies were purified from hybridomas (Harlan). Cells were treated with small molecules at indicated concentrations at 18 h and 48 h of cell plating. On day 4 of the culture, cells were stimulated with 20 ng/ml of phorbol 12-myristate 13-acetate (PMA) and ionomycin (1 μg/ml) for 4 h in the presence of brefeldin A. Following stimulation, cells were stained with fixable viability dye (eBioscience) and surface stained for CD44 and CD4, permeabilized using cytofix/cytoperm (BD biosciences) and subsequently, stained for intracellular IL-17. Foxp3/Transcription Factor Staining kit (eBioscience) kit was used for intranuclear staining of RORγt. Samples were acquired on BD Fortessa and analyzed using Flowjo (Tree star Inc).

[2] = test system: Th17 cells from Mir155 reporter mice; assay: HTS viability assay (CellTiter-Glo); type: cell-based, mouse; conditions: primary Th17 cells
Experimental: Next, the HTS assay was further validated for robustness by screening LOPAC1280, a collection of 1280 pharmacologically active compounds. The LOPAC collection contains biologically annotated compounds with diverse mechanism(s) including but not limited to pharma-developed tools, receptor ligands and approved drugs. Seven concentrations of each compound were assayed, ranging from 3 nM to 46 µM as five-fold dilutions. One assay plate was treated with DMSO to determine the assay robustness in the absence of compounds (Fig. 1d). A total of eight assay plates including DMSO plate were tested in the LOPAC pilot screen and the median assay parameter per plate was 21-fold signal-to-background (S/B) ratio and the median Z’-factor was 0.72 (Fig. 1e), thus further validating the robustness of this assay in a 1536-well format. Data was analyzed using a curve class classification algorithm which classifies dose responses in four categories (Class 1, 2, 3 and 4) based on the quality of curve fit to the data (r^2), the magnitude of the response (efficacy), and the number of asymptotes to the calculated curve. Compounds with a curve class of either − 1.1, − 1.2, − 2.1, − 2.2 in the primary assay were classified as pharmacologically active compounds. […] The LOPAC collection was additionally tested for toxic effects using the CellTiter-Glo Luminescent Cell Viability Assay (Promega) which measures ATP levels as a proxy for number of live cells to exclude toxic compounds. […] An ideal compound should antagonize Mir155 reporter with minimal effect on cell viability.
For the HTS viability assay, the T cells were purified, polarized, plated and treated with compounds as described above for HTS β-gal assay except Columns 1 and 2 had no cells and served as basal control. After 48 h of incubation, 3 μL of CellTiter-Glo reagent (Promega) was added using a Bioraptor Flying Reagent Dispenser (Aurora Discovery-BD)[50]. The plates were incubated for 15 min at room temperature and the luminescence signal was captured using a ViewLux (Perkin Elmer) containing a luminescent filter. […]

[3] = LC-MS analysis of compound stability
Experimental: We analyzed by liquid chromatography mass spectrometry (LC–MS) the 10 mM compound stock solutions in DMSO, stored at − 20 °C, that were used in the screening (older batch) versus the “fresh” solutions. […] Sample 2 is another sample that had been kept outside at room temperature for 30 days before evaluation.

CD4+ T cells = assay: Viability dye and CD44 activation staining in the IL-17 flow cytometric assay; type: cell-based; conditions: Fig. S2a
Experimental: as §1, §2

[4] = Th17 cells from Mir155 reporter mice, β-gal signal

Compound	EC50 (Mir155 reporter; [4])	IL-17+ cells, gated on live CD4+CD44high cells ([1]; 20 µM)	effect on IL-17 production ([1]; C57BL/6 CD4+ T cells, Th17 polarization)	cytotoxicity / cell viability [2]	stability by LC–MS [3]	EC50 (Mir155 reporter)	inhibition at 20 µM ([1]; CD4+ T)	IL-17 / RORγt plot, percent cells, gated on live CD4+CD44high ([1]; Fig. S2b, DMSO 32.4% / 21.2%)	inhibition at 20 µM ([1]; 20 µM, day 4, C57BL/6 CD4+ T cells)	live cells (fixable viability dye, Live-dead) (CD4+ T cells; DMSO 77.4% / 80.6%)	CD4+ CD44+ cells (CD4+ T cells; DMSO 97.2% / 98.2%)
c1ccc2[nH]c(-c3cscn3)nc2c1 [thiabendazole, reference compound]	5.5 µM	31%	did not affect IL-17 production	not because of toxicity of the compounds	stable and pure	–	–	–	–	–	–
CCCSc1ccc2nc(NC(=O)OC)[nH]c2c1 [albendazole, reference compound]	–	14.2%	–	not because of toxicity of the compounds	stable and pure	2.5 µM	55%	–	–	–	–
O=C(Nc1ncc([N+](=O)[O-])s1)c1cccs1 [tenonitrozole, reference compound]	0.14 µM	10.4%	–	not because of toxicity of the compounds	stable and pure	–	–	9.3%	68%	70.6%	96.4%
